Experiments:
rat mandible = test: Bilateral rat mandible model, bone growth and inflammation, histomorphometry; assay type: in vivo, Female Sprague Dawley rats; conditions: for new bone growth / bone anabolic effect (in words): one injection at rat mandible; for New Bone Area (mm^2 ± SEM) / New Bone Width-1 (mm ± SEM) / New Bone Width-3 (mm ± SEM): Table 1, pairs tested on contralateral sides
Excerpt: Specifically, a bilateral rat mandible model was used with test and control samples on contralateral sides. […] The rats were euthanized at 24 days and evaluated histomorphometrically at 24 days.

[1] = Phase solubility of dexamethasone or PGE1 in the presence of ALN-CD
Procedure: The experiments were carried out in triplicate. Tubes containing the solutions were sealed and shaken at 25° C. for 3 days. Suspensions were then filtered using a syringe through 0.22 μm filter. The concentration of dexamethasone or PGE1 in the filtrate was determined by HPLC equipped with a UV detector. For dexamethasone, 10 μg/ml fluorometholone was used as the internal standard.
The conditions for detecting dexamethasone were as follows: chromatographic column: Agilent C18 reverse-phase (4.6×250 mm, 5 μm; Santa Clara, Calif.); mobile phase: acetonitrile-water (40:60, V/V) at a flow rate of 1 ml/min; UV detection at 240 nm.
The conditions for detecting PGE1 were as follows: chromatographic column: Agilent C18 reverse-phase (4.6×250 mm, 5 μm); mobile phase: acetonitrile-0.01M KH2PO4 (42:58, v/v) at a flow rate of 1 ml/minute; UV detection at 205 nm.

[2] = Binding potential of ALN-CD on HA; conditions: rhodamine B label; 10 minutes with HA at room temperature, washed with H2O 5-10 times
Procedure: 20 mg rhodamine B labeled ALN-CD or CD and 1 mg rhodamine B were dissolved in 0.5 ml water separately, and 100 mg of hydroxyapatite (HA) was added. The mixture was then allowed to stir gently for 10 minutes at room temperature. HA was recovered by centrifugation (10,000 rpm, 2 minutes), then washed with H2O 5-10 times to remove unbound compounds. The HA was allowed to dry under vacuum at room temperature.

[3] = 50 μl of 400 mg/mL ALN-CD or 50 μl of 81 mg/ml ALN
[4] = one injection, contralateral sides, 24 days

Molecule: CCCCC[C@H](O)/C=C/[C@H]1[C@H](O)CC(=O)[C@@H]1CCCCCCC(=O)O [PGE1, prostaglandin E1]
- new bone growth / bone anabolic effect (in words) (rat mandible; 24 days): negligible

Molecule: NCCCC(O)(P(=O)(O)O)P(=O)(O)O [alendronate]
- cases with new bone on distant areas of the mandible (e.g., the medial surface) (rat mandible; [3]): 8 of 8
- cases with new bone on the lateral surface of the mandible (location of injection) (rat mandible; [3]): 5 of 8
- New Bone Area (mm^2 ± SEM) (rat mandible; 24 days): 0.61 ± 0.12 mm^2
- New Bone Width-1 (mm ± SEM) (rat mandible; 24 days): 0.14 ± 0.05 mm
- New Bone Width-3 (mm ± SEM) (rat mandible; 24 days): 0.24 ± 0.11 mm
- new bone area (rat mandible; equivalent amounts of ALN: 50 μl of 400 mg/mL ALN-CD or 50 μl of 81 mg/ml ALN): 0.61 ± 0.12 mm^2
- new bone growth / bone anabolic effect (in words) (rat mandible; 24 days): moderate bone anabolic effect

Molecule: C[C@@H]1C[C@H]2[C@@H]3CCC4=CC(=O)C=C[C@]4(C)[C@@]3(F)[C@@H](O)C[C@]2(C)[C@@]1(O)C(=O)CO [dexamethasone]
- aqueous solubility as a function of the concentration of ALN-CD ([1]; ALN-CD 0 to 10 mM, 25° C., 3 days): increases
- apparent 1:1 stability constant Kc ([1]; complex with ALN-CD, water, 25° C.): 2570 M⁻¹
- solubility diagram type according to Higuchi and Connors ([1]; with ALN-CD): AL type

Molecule: CCN(CC)c1ccc2c(-c3ccccc3C(=O)O)c3ccc(=[N+](CC)CC)cc-3oc2c1.[Cl-] [rhodamine B]
- color of HA after washings (binding to the HA surface) [2]: disappeared

Molecule: hydroxypropyl(HP)-β-CD [HP-β-CD]
- New Bone Area (mm^2 ± SEM) (rat mandible; 24 days): 0.25 ± 0.08 mm^2
- New Bone Width-1 (mm ± SEM) (rat mandible; 24 days): 0.05 ± 0.02 mm
- New Bone Width-3 (mm ± SEM) (rat mandible; 24 days): 0.19 ± 0.11 mm
- increase in new bone width (rat mandible; [4]): 0.07±0.10 mm
- percentage of osteoblasts on the lateral periosteal surface (rat mandible; [4]): 7.3%

Reference: patent US20100022481A1, “Drug Carriers, Their Synthesis, and Methods of Use Thereof” (priority 2006, published 2010)
